Data on seven compounds can be found in US7482024B2, “Compositions comprising an active agent” (Nektar Therapeutics, priority 1999, dated 2009).

“And” between values parts separate entries of the source, which are not always exact repeats. Equal entries are not always repeated. Peptide text beside a SMILES is read from it.

This data set can be described thus: Surface tension measurement, Kruss Processor Tensiometer-K12, Wilhelmy-method (plate method). The format is physicochemical. The note with it: for Surface tension, 25° C. Extrapolated Values at 2 mg/ml / Surface tension, 45° C. Extrapolated Values at 2 mg/ml: extrapolated to 2 mg/ml. As to the method: A “surface active” material is one having surface activity (measured, e.g., by surface tensiometry), as characterized by its ability to reduce the surface tension of the liquid in which it is dissolved. […] A peptide that is more surface active than another peptide is one which decreases the surface tension of water to a greater extent, when present in the liquid at the same concentration and measured under the same set of experimental conditions. The surface tension of several representative dipeptides, tripeptides, and proteins was measured at 25° C. and 45° C. to provide an indication of their relative surface activities. Surface tension measurements were carried out using a Kruss Processor Tensiometer-K12 with the Wilhelmy-method (Plate method). Solutions were prepared by dissolving either 0.05%, 0.2%, or 0.6% peptide/protein (by weight) along with an appropriate amount of raffinose by weight to provide final solutions having a 1.0% by weight solids content. Surface tension measurements at 25° C. and 45° C. were then obtained for the test solutions at three different time points (49 seconds, 100 seconds and 194 seconds).

The mark [1] stands for this setting: 0.2% (wt/vol) plus raffinose to 1% total solids, 25° C., 49 s.
The mark [2] stands for this setting: 0.2% (wt/vol) plus raffinose to 1% total solids, 25° C., 100 s.
Where [3] appears, read: 0.2% (wt/vol) plus raffinose to 1% total solids, 25° C., 194 s.

With `CC(C)CC(N)C(=O)NC(CC(C)C)C(=O)NC(CC(C)C)C(=O)O` (stereo not drawn) [tri-leucine, trileucine] (H-Leu-Leu-Leu-OH; configuration not given here), the “Surface activity (ability to lower the surface tension of water), in words” value is recorded as “highly surface active”. For the same compound, the “Surface tension, Actual MEAN” value (0.68 mg/ml, 25° C.) was 56.9 mN/m. Besides, the “Surface tension, Actual MEAN” value (0.68 mg/ml, 45° C.) was 52.8 mN/m. The “Surface tension, Actual MEAN” value (2.03 mg/ml, 25° C.) was 49.7 mN/m. For the same compound, the “Surface tension, Actual MEAN” value (2.03 mg/ml, 45° C.) worked out at 46.3 mN/m. The “Surface tension, Actual MEAN” value (6.10 mg/ml, 25° C.) was 42.4 mN/m. For the same compound, the “Surface tension, Actual MEAN” value (6.10 mg/ml, 45° C.) is given as 38.9 mN/m. For the same compound, the “Surface tension (ST)” value (0.05%, pH4, raffinose to 1% solids, 25° C., 49 s, listed as leu3) is 59.9 mN/m and 60.4 mN/m. Besides, the “Surface tension (ST)” value (0.05%, pH4, raffinose to 1% solids, 25° C., 100 s, listed as leu3) was 59.8 mN/m and 60.3 mN/m. In addition, the “Surface tension (ST)” value (0.05%, pH4, raffinose to 1% solids, 25° C., 194 s, listed as leu3) was 59.7 mN/m and 60.2 mN/m. Also, under “0.05%, pH4, raffinose to 1% solids, 45° C., 49 s, listed as leu3”, the “Surface tension (ST)” value was 57.1 mN/m and 58.1 mN/m and 58 mN/m. Further, the “Surface tension (ST)” value (0.05%, pH4, raffinose to 1% solids, 45° C., 100 s, listed as leu3) is 57 mN/m and 57.9 mN/m and 57.8 mN/m. Further, the “Surface tension (ST)” value (0.05%, pH4, raffinose to 1% solids, 45° C., 194 s, listed as leu3) was 57 mN/m and 57.8 mN/m. The “Surface tension (ST)” value (0.05%, pH7, raffinose to 1% solids, 25° C., 49 s, listed as leu3) is 60.1 mN/m and 60 mN/m and 60.2 mN/m. Moreover, the “Surface tension (ST)” value (0.05%, pH7, raffinose to 1% solids, 25° C., 100 s, listed as leu3) was 59.8 mN/m and 60 mN/m. Moreover, under “0.05%, pH7, raffinose to 1% solids, 25° C., 194 s, listed as leu3”, the “Surface tension (ST)” value is 59.7 mN/m and 59.8 mN/m. Moreover, where the note is “0.05%, pH7, raffinose to 1% solids, 45° C., 49 s, listed as leu3”, the “Surface tension (ST)” value was 58.5 mN/m and 58.2 mN/m. The “Surface tension (ST)” value (0.05%, pH7, raffinose to 1% solids, 45° C., 100 s, listed as leu3) was 58.4 mN/m and 58.2 mN/m and 58.1 mN/m. Besides, the “Surface tension (ST)” value (0.05%, pH7, raffinose to 1% solids, 45° C., 194 s, listed as leu3) was 58.4 mN/m and 58.1 mN/m. The “Surface tension (ST)” value under setting [1] turned out to be 51 mN/m. Further, under setting [2], the “Surface tension (ST)” value was 50.9 mN/m and 50.8 mN/m. Besides, the “Surface tension (ST)” value under setting [3] is 50.9 mN/m and 50.7 mN/m. Besides, under “0.2%, pH4, raffinose to 1% solids, 25° C., 49 s”, the “Surface tension (ST)” value worked out at 51.4 mN/m. Further, for the setting “0.2%, pH4, raffinose to 1% solids, 25° C., 100 s, listed as leu3”, the “Surface tension (ST)” value was 51.2 mN/m and 51.3 mN/m. Moreover, the “Surface tension (ST)” value (0.2%, pH4, raffinose to 1% solids, 25° C., 194 s, listed as leu3) was 51.1 mN/m and 51.2 mN/m. For the same compound, the “Surface tension (ST)” value (0.2%, pH4, raffinose to 1% solids, 45° C., 49 s, listed as leu3) is 47.9 mN/m and 47.2 mN/m. In addition, under “0.2%, pH4, raffinose to 1% solids, 45° C., 100 s, listed as leu3”, the “Surface tension (ST)” value was 47.5 mN/m and 47.2 mN/m and 47.3 mN/m. In addition, the “Surface tension (ST)” value (0.2%, pH4, raffinose to 1% solids, 45° C., 194 s, listed as leu3) was 47.4 mN/m and 47.3 mN/m and 47.1 mN/m. For the same compound, the “Surface tension (ST)” value (0.2%, pH7, raffinose to 1% solids, 25° C., 49 s, listed as leu3) was 51 mN/m and 50.9 mN/m and 50.7 mN/m. Further, under “0.2%, pH7, raffinose to 1% solids, 25° C., 100 s, listed as leu3”, the “Surface tension (ST)” value is 50.8 mN/m and 50.7 mN/m and 50.5 mN/m. Moreover, the “Surface tension (ST)” value (0.2%, pH7, raffinose to 1% solids, 25° C., 194 s, listed as leu3) is 50.7 mN/m and 50.6 mN/m and 50.4 mN/m. For the setting “0.2%, pH7, raffinose to 1% solids, 45° C., 49 s, listed as leu3”, the “Surface tension (ST)” value is 58.5 mN/m and 58.2 mN/m. Further, under “0.2%, pH7, raffinose to 1% solids, 45° C., 100 s, listed as leu3”, the “Surface tension (ST)” value is 58.4 mN/m and 58.2 mN/m and 58.1 mN/m. Also, the “Surface tension (ST)” value (0.2%, pH7, raffinose to 1% solids, 45° C., 194 s, listed as leu3) was 58.4 mN/m and 58.1 mN/m. For the setting “0.6%, pH4, raffinose to 1% solids, 25° C., 49 s, listed as leu3”, the “Surface tension (ST)” value was 44.2 mN/m and 44.3 mN/m. In addition, the “Surface tension (ST)” value (0.6%, pH4, raffinose to 1% solids, 25° C., 100 s, listed as leu3) is 44.1 mN/m and 44.2 mN/m. In addition, under “0.6%, pH4, raffinose to 1% solids, 25° C., 194 s, listed as leu3”, the “Surface tension (ST)” value was 44 mN/m and 44.2 mN/m and 44.1 mN/m. Also, under “0.6%, pH4, raffinose to 1% solids, 45° C., 49 s, listed as leu3”, the “Surface tension (ST)” value was 40.9 mN/m and 41.1 mN/m. The “Surface tension (ST)” value (0.6%, pH4, raffinose to 1% solids, 45° C., 100 s, listed as leu3) was 40.9 mN/m and 41 mN/m. Under “0.6%, pH4, raffinose to 1% solids, 45° C., 194 s, listed as leu3”, the “Surface tension (ST)” value is 40.8 mN/m and 40.9 mN/m. Besides, under “0.6%, pH7, raffinose to 1% solids, 25° C., 49 s, listed as leu3”, the “Surface tension (ST)” value is 43.7 mN/m and 43.8 mN/m. In addition, the “Surface tension (ST)” value (0.6%, pH7, raffinose to 1% solids, 25° C., 100 s) is recorded as 43.7 mN/m. Besides, the “Surface tension (ST)” value (0.6%, pH7, raffinose to 1% solids, 25° C., 194 s, listed as leu3) was 43.6 mN/m and 43.7 mN/m. Further, the “Surface tension of water lowered to” value (concentration of 0.68 mg/ml) is listed as “about 57 mN/m”. This compound registered a Surface tension of water lowered to (concentration of 1.20 mg/ml, water about 72 mN/m) of 42 mN/m. The “Surface tension, 25° C. Extrapolated Values at 2 mg/ml” value (25° C.) was 49.7 mN/m. Moreover, the “Surface tension, 45° C. Extrapolated Values at 2 mg/ml” value (45° C.) is 46.3 mN/m.

As for Ala-Val-Leu [reference compound], the “Surface tension, Actual MEAN” value is 67.5 mN/m (0.97 mg/ml, 25° C.); 60.3 mN/m (0.97 mg/ml, 45° C.); 62.8 mN/m (2.90 mg/ml, 25° C.); 57.7 mN/m (2.90 mg/ml, 45° C.); 55.7 mN/m (8.70 mg/ml, 25° C.); 53.8 mN/m (8.70 mg/ml, 45° C.). Moreover, the “Surface tension, 25° C. Extrapolated Values at 2 mg/ml” value (25° C.) is 65 mN/m. Further, the “Surface tension, 45° C. Extrapolated Values at 2 mg/ml” value (45° C.) is 58.9 mN/m.

In the case of Leu-Tyr [reference compound], the “Surface tension, Actual MEAN” value reads like this: (0.71 mg/ml, 25° C.) 71.5 mN/m; (0.71 mg/ml, 45° C.) 68.0 mN/m; (2.13 mg/ml, 25° C.) 68.0 mN/m; (2.13 mg/ml, 45° C.) 65.6 mN/m; (6.40 mg/ml, 25° C.) 62.2 mN/m; (6.40 mg/ml, 45° C.) 59.5 mN/m. Also, the “Surface tension, 25° C. Extrapolated Values at 2 mg/ml” value (25° C.) was 68.3 mN/m. Besides, for the setting “45° C.”, the “Surface tension, 45° C. Extrapolated Values at 2 mg/ml” value is recorded as 67.3 mN/m.

Regarding Leu-Val [reference compound], the “Surface tension, Actual MEAN” value is, setting by setting: (0.98 mg/ml, 25° C.) 69.2 mN/m; (0.98 mg/ml, 45° C.) 64.2 mN/m; (2.93 mg/ml, 25° C.) 65 mN/m; (2.93 mg/ml, 45° C.) 60.4 mN/m; (8.80 mg/ml, 25° C.) 59.1 mN/m; (8.80 mg/ml, 45° C.) 55.7 mN/m. Also, the “Surface tension, 25° C. Extrapolated Values at 2 mg/ml” value (25° C.) is given as 67.2 mN/m. Moreover, where the note is “45° C.”, the “Surface tension, 45° C. Extrapolated Values at 2 mg/ml” value is recorded as 62.3 mN/m.

Regarding Val-Ile [reference compound], the “Surface tension, Actual MEAN” value runs as follows: (1.11 mg/ml, 25° C.) 71.6 mN/m; (1.11 mg/ml, 45° C.) 66.3 mN/m; (3.33 mg/ml, 25° C.) 70.1 mN/m; (3.33 mg/ml, 45° C.) 65.3 mN/m; (10.00 mg/ml, 25° C.) 66.1 mN/m; (10.00 mg/ml, 45° C.) 61.9 mN/m. Besides, the “Surface tension, 25° C. Extrapolated Values at 2 mg/ml” value (25° C.) was 70.3 mN/m. The “Surface tension, 45° C. Extrapolated Values at 2 mg/ml” value (45° C.) is recorded as 65.8 mN/m.

Consider Val-Leu [reference compound], for which the “Surface tension, Actual MEAN” value reads like this: (0.87 mg/ml, 25° C.) 70 mN/m; (0.87 mg/ml, 45° C.) 65.5 mN/m; (2.60 mg/ml, 25° C.) 69.5 mN/m; (2.60 mg/ml, 45° C.) 65.0 mN/m; (7.80 mg/ml, 25° C.) 68 mN/m; (7.80 mg/ml, 45° C.) 63.5 mN/m. In addition, the “Surface tension, 25° C. Extrapolated Values at 2 mg/ml” value (25° C.) is listed as 69.8 mN/m. In addition, where the note is “45° C.”, the “Surface tension, 45° C. Extrapolated Values at 2 mg/ml” value is 65.3 mN/m.

Turning to di-alanine [reference compound], the “Surface tension (ST)” value under setting [1] was 72 mN/m and 72.1 mN/m; the “Surface tension (ST)” value under setting [2] is 72 mN/m and 71.9 mN/m and 72.1 mN/m; the “Surface tension (ST)” value under setting [3] was 71.9 mN/m and 72.1 mN/m.
